# Earlier results as cited in patent publication US20260207586A1, “PHARMACEUTICAL COMPOSITION COMPRISING LURBINECTEDIN, PREPARATION METHOD THEREFOR, AND USE THEREOF” (BrightGene Bio-Medical Technology Co., Ltd., priority 2022, published 2026).
compound,measurement,setting,value
COc1ccc2[nH]c3c(c2c1)CCN[C@]31CS[C@@H]2c3c(OC(C)=O)c(C)c4c(c3[C@H](COC1=O)N1[C@@H]2[C@H]2c3c(cc(C)c(OC)c3O)C[C@@H]([C@@H]1O)N2C)OCO4 [Lurbinectedin],Solubility in water,,limited
same,Storage time under refrigeration,5° C.,1 month
same,Stability at room temperature,25° C.,rapidly degraded
